Test results taken from ChEMBL document CHEMBL5465560, “Selectivity Literature for EUbOPEN Chemogenomic Library” (2024).
One block for each compound: values may come before it.

Tests used:
[1] = molecular target: Protein arginine N-methyltransferase 5 (Homo sapiens, UniProt O14744); assay: Selectivity interaction (Methyltransferase screen (radiometric assays, panel of 8 PRMTs, 21 protein lysine methyltransferases, 3 DNA methyltransferases, and one RNA methyltransferase)) EUB0000271b PRMT5
[2] = molecular target: Cyclin-dependent kinase 11B (Homo sapiens) (UniProt P21127); assay: Selectivity interaction (Ambit KINOMEscan and KiNATiv profiling in Jurkat cells) EUB0000090b CDK11B; assay type: cell-based; conditions: at 1 µM
[3] = molecular target: T1, Dual specificity protein kinase TTK (Homo sapiens) (UniProt P33981); assay: Selectivity interaction (Kinase panel (DSF assay)) EUB0001559a TTK
T1 sequence (whole entry): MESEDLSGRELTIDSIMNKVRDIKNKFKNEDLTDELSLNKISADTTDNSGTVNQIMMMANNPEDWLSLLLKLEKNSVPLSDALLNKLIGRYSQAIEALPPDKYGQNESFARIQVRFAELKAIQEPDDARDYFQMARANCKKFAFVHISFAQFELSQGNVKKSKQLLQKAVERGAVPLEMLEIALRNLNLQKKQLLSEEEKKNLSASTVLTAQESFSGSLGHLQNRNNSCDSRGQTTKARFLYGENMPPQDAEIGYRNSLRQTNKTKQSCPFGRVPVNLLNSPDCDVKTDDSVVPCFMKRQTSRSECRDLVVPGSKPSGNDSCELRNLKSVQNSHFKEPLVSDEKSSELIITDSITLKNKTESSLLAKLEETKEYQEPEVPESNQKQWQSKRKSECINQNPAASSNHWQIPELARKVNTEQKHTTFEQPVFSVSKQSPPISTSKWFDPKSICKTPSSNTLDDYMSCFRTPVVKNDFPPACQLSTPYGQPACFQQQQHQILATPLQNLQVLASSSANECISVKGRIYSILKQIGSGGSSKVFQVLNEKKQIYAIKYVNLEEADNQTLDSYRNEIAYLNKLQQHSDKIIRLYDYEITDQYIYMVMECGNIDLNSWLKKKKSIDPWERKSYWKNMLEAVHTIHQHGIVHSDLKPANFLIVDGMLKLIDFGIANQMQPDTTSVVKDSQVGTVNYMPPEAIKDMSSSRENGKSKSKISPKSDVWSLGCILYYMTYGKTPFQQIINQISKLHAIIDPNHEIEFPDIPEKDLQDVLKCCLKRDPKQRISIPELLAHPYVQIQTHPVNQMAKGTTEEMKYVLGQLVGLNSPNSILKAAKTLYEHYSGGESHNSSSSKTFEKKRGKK

[4] = molecular target: Non-receptor tyrosine-protein kinase TYK2 (Homo sapiens, UniProt P29597); assay: Selectivity interaction (KinomeScan (DiscoverX)) EUB0000595a TYK2; conditions: at 10 µM
[5] = molecular target: Dual specificity mitogen-activated protein kinase kinase 1 (Homo sapiens, UniProt Q02750); assay: Selectivity interaction (KinomeScan (DiscoverX)) EUB0000229b MAP2K1; conditions: at 10 µM
[6] = molecular target: T2, Serine/threonine-protein kinase TAO2 (Homo sapiens) (UniProt Q9UL54); assay: Selectivity interaction (KinomeScan (DiscoverX)) EUB0000666a TAOK2; conditions: at 10 µM
T2 sequence (whole entry): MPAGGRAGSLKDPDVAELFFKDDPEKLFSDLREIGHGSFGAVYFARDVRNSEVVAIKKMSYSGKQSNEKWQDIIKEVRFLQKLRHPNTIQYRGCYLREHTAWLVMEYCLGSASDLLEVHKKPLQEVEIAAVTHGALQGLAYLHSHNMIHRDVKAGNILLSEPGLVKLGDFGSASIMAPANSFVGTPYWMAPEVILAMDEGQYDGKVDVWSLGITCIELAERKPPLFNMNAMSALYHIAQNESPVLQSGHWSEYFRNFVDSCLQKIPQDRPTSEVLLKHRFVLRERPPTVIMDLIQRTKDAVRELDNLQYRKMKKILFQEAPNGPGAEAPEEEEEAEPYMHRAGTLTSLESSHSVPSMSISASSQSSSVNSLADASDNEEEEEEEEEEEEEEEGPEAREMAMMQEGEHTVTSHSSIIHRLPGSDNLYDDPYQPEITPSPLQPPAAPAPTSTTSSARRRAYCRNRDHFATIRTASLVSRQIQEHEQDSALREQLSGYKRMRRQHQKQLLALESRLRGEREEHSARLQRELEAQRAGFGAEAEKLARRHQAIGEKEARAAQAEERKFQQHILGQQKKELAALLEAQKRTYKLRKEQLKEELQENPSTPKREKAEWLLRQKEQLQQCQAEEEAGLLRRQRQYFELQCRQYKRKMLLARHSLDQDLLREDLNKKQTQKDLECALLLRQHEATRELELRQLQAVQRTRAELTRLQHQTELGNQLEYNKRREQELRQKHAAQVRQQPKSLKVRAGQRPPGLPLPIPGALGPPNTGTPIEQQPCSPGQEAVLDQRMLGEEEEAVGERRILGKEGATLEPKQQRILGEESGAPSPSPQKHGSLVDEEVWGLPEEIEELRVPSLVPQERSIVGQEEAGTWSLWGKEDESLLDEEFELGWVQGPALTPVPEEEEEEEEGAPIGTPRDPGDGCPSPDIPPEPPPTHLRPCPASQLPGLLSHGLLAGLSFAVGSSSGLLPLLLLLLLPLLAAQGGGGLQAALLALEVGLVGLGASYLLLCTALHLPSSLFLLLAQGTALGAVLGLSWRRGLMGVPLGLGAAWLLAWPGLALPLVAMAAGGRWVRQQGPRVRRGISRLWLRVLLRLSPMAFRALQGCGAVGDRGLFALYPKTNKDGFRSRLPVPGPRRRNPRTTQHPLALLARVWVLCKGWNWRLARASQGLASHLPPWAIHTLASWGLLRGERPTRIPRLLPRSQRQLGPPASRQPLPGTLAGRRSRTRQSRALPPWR

[7] = molecular target: T3, Dual specificity mitogen-activated protein kinase kinase 5 (Homo sapiens) (UniProt Q13163); assay: Selectivity interaction (Kinase panel (Carna Biosciences)) EUB0001542aTs MAP2K5; conditions: at 1 µM
T3 sequence (whole entry): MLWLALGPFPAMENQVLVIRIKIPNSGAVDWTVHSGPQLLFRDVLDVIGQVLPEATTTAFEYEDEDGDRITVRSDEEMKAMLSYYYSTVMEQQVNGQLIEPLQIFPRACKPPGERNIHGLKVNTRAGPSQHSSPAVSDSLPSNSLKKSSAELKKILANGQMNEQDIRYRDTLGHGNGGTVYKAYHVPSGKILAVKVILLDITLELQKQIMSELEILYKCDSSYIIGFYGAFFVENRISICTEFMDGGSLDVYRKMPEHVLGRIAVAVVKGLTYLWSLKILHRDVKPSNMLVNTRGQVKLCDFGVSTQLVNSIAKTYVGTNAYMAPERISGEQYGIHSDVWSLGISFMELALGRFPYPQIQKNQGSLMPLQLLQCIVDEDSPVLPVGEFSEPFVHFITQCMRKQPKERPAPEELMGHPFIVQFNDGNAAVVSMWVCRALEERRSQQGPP

Sequence of Protein arginine N-methyltransferase 5 (O14744 whole entry): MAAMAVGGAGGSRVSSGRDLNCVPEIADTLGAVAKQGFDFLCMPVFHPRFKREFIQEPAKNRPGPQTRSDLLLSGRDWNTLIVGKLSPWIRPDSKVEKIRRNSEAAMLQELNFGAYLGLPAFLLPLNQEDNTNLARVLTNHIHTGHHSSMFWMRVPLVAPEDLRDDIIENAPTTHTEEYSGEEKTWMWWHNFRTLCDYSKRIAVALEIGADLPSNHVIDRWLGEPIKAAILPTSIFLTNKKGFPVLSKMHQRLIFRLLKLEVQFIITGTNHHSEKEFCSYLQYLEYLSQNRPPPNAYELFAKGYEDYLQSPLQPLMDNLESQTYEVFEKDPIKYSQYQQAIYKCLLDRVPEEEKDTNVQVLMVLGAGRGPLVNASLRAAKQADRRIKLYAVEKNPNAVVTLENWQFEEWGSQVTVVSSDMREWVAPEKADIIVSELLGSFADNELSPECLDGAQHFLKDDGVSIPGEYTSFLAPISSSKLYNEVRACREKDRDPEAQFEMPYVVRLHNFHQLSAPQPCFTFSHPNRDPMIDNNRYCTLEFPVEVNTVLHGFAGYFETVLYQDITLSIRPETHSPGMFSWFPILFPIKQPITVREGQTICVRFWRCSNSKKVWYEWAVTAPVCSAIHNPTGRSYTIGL
Sequence of Non-receptor tyrosine-protein kinase TYK2 (P29597 whole entry): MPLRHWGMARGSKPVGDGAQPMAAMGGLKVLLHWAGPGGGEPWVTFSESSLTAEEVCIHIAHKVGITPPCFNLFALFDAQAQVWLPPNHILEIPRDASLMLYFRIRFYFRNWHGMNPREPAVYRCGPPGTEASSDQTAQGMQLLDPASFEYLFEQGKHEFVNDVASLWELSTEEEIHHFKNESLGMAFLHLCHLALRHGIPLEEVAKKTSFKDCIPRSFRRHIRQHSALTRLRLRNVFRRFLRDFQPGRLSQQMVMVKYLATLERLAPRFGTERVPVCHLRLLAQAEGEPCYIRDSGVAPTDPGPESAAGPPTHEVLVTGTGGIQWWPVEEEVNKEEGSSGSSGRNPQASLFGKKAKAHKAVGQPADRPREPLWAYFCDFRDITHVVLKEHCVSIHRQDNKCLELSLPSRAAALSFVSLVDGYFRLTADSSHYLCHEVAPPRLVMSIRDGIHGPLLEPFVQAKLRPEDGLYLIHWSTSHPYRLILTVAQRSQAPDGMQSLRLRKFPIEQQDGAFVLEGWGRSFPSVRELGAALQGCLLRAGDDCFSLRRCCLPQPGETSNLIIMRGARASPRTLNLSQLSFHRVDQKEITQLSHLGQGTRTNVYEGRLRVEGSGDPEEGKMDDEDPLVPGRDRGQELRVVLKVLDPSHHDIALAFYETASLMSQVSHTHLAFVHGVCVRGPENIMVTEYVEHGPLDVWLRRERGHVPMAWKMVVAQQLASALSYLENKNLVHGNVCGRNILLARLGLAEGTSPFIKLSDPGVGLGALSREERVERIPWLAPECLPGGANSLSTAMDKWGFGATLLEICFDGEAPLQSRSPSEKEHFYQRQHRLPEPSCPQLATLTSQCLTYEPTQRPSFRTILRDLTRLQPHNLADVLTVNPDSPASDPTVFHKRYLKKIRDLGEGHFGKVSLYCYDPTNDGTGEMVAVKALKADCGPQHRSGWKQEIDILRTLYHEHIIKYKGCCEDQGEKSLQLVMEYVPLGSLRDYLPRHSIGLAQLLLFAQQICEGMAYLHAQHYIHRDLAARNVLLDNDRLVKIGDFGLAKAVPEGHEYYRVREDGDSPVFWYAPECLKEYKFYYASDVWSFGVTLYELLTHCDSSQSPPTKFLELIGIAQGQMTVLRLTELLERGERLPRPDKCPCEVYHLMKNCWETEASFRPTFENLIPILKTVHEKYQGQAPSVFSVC
Sequence of Cyclin-dependent kinase 11B (Homo sapiens) (P21127 whole entry): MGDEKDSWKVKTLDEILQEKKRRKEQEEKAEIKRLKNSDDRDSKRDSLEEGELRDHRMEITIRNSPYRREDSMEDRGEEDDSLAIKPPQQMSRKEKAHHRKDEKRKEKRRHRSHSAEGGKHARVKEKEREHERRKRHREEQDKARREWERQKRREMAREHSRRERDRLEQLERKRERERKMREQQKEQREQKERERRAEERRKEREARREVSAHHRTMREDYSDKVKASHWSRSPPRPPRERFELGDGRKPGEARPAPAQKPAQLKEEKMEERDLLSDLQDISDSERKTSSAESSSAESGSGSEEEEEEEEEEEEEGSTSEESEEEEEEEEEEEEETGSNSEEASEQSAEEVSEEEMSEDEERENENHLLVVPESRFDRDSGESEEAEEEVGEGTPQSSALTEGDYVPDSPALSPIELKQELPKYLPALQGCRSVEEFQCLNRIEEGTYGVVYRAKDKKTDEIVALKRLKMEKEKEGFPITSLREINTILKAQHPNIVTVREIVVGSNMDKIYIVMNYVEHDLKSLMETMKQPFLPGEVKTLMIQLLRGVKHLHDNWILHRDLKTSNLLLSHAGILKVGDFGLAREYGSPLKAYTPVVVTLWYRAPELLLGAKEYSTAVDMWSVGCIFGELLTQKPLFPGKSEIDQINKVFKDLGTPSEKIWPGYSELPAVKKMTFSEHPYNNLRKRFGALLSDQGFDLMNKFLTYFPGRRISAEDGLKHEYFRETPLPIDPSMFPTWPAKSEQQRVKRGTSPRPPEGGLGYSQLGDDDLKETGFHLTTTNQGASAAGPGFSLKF
Sequence of Dual specificity mitogen-activated protein kinase kinase 1 (Q02750 whole entry): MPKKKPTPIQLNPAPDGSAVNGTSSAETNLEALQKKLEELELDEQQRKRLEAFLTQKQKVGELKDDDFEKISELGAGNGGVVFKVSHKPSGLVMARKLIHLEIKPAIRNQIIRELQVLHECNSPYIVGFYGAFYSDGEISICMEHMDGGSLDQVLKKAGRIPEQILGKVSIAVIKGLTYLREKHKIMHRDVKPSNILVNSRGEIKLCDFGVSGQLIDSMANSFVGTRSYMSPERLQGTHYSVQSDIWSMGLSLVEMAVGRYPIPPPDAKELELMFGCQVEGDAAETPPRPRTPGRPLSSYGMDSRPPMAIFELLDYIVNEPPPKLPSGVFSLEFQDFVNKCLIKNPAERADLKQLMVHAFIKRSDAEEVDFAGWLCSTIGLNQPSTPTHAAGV

SMILES: Cc1cc(C)cc([C@@H]2c3cc(C)ccc3NC(=O)CN2C(=O)c2ccc(Br)s2)c1
% of activity ([1]; at 1 µM): 102%
% of activity ([1]; at 10 µM): 100%

SMILES: CN(C)C/C=C/C(=O)Nc1ccc(C(=O)N2CCCC(Nc3ncc(Cl)c(-c4c[nH]c5ccccc45)n3)C2)cc1 (stereo not drawn)
% of control [2]: 100%

dTM [3]: -0.3 K
SMILES: CN(C(=O)c1cnn2cccnc12)c1cc2c(cc1N1CCOCC1)C(=O)N(C[C@@H](F)C(C)(C)O)C2

SMILES: COCC(=O)NC/C=C/c1ccc2ncnc(Nc3ccc(Oc4ccc(C)nc4)c(C)c3)c2c1 [CP-724714]
% of control [4]: 24%

SMILES: COc1cc(N(C)c2ccnc3ccc(C(F)(F)F)cc23)cc(OC)c1OC
% binding [5]: 68%

SMILES: O=C(NOC[C@H](O)CO)c1ccc(F)c(F)c1Nc1ccc(I)cc1F
% of control [6]: 100%

% of inhibition [7]: 70%
SMILES: Cn1cc(Nc2nccc(N3CC4CCC(C3)N4C(=O)[C@@H]3CC3(F)F)n2)cn1
